Experimental data published in ChEMBL document CHEMBL3885881, “DrugMatrix”.

Organism: Rattus norvegicus
Assay: DrugMatrix - Regimen: Daily Repeat
Assay type: toxicity, organism-based, Sprague-Dawley
Design: regimen Daily Repeat, gender Male, age 6-8 weeks
Details: in vivo, po, route oral GAVAGE, […]; for ABSOLUTE BASOPHIL / ABSOLUTE EOSINOPHIL / ABSOLUTE LYMPHOCYTE / ABSOLUTE MONOCYTE / ABSOLUTE SEGMENTED NEUTROPHIL / BASOPHIL / EOSINOPHIL / ERYTHROCYTE COUNT / HEMATOCRIT / HEMOGLOBIN / LEUKOCYTE COUNT / LYMPHOCYTE / MEAN CORPUSCULAR HEMOGLOBIN / MEAN CORPUSCULAR HEMOGLOBIN CONCENTRATION / MEAN CORPUSCULAR VOLUME / MONOCYTE / NEUTROPHIL / NUCLEATED RED BLOOD CELLS / PLATELET COUNT: tissue Blood; for ALANINE AMINOTRANSFERASE / ALBUMIN / ALKALINE PHOSPHATASE / ASPARTATE AMINOTRANSFERASE / BLOOD UREA NITROGEN / CARBON DIOXIDE / CHLORIDE / CHOLESTEROL / CREATINE PHOSPHOKINASE / CREATININE / GLUCOSE / LACTATE DEHYDROGENASE / LIPASE / PHOSPHORUS / POTASSIUM / SODIUM / TOTAL BILIRUBIN / TOTAL PROTEIN / URIC ACID: tissue Plasma
[1] = 30 mg/kg, 120 h, dose level Low, time 5 day
[2] = 1000 mg/kg, 72 h, dose level High, time 3 day
[3] = 1000 mg/kg, 120 h, dose level High, time 5 day

## CCCCC(=O)N(Cc1ccc(-c2ccccc2-c2nnn[nH]2)cc1)[C@H](C(=O)O)C(C)C
[1]
  ABSOLUTE BASOPHIL: 0 CELLS/uL
  ABSOLUTE EOSINOPHIL: 0 CELLS/uL
  ABSOLUTE LYMPHOCYTE: 14863.33 CELLS/uL
  ABSOLUTE MONOCYTE: 58.33 CELLS/uL
  ABSOLUTE SEGMENTED NEUTROPHIL: 1411.67 CELLS/uL
  BASOPHIL: 0%
  EOSINOPHIL: 0%
  ERYTHROCYTE COUNT: 5.54 x10E6/uL
  HEMATOCRIT: 34.23%
  HEMOGLOBIN: 13.5 G/DL
  LEUKOCYTE COUNT: 16.33 x10E3/uL
  LYMPHOCYTE: 91%
  MEAN CORPUSCULAR HEMOGLOBIN: 24.4 pg
  MEAN CORPUSCULAR HEMOGLOBIN CONCENTRATION: 39.43 G/DL
  MEAN CORPUSCULAR VOLUME: 61.87 fL
  MONOCYTE: 0.33%
  NEUTROPHIL: 8.67%
  NUCLEATED RED BLOOD CELLS: 0 /100WBC
  PLATELET COUNT: 1196 x10E3/uL
  ALANINE AMINOTRANSFERASE: 63.67 u/L
  ALBUMIN: 4.07 G/DL
  ALKALINE PHOSPHATASE: 455.33 u/L
  ASPARTATE AMINOTRANSFERASE: 87.33 u/L
  BLOOD UREA NITROGEN: 15.67 mg/dL
  CARBON DIOXIDE: 23.33 mmol/L
  CHLORIDE: 102.33 MEQ/L
  CHOLESTEROL: 63 mg/dL
  CREATINE PHOSPHOKINASE: 339 u/L
  CREATININE: 0.18 mg/dL
  GLUCOSE: 206.33 mg/dL
  LACTATE DEHYDROGENASE: 183 u/L
  LIPASE: 9.33 u/L
  PHOSPHORUS: 12.9 mg/dL
  POTASSIUM: 6.08 MEQ/L
  SODIUM: 140.77 MEQ/L
  TOTAL BILIRUBIN: 0.13 mg/dL
  TOTAL PROTEIN: 5.6 G/DL
  URIC ACID: 2.2 mg/dL
[2]
  ABSOLUTE BASOPHIL: 0 CELLS/uL
  ABSOLUTE EOSINOPHIL: 0 CELLS/uL
  ABSOLUTE LYMPHOCYTE: 6741.67 CELLS/uL
  ABSOLUTE MONOCYTE: 52 CELLS/uL
  ABSOLUTE SEGMENTED NEUTROPHIL: 673 CELLS/uL
  BASOPHIL: 0%
  EOSINOPHIL: 0%
  ERYTHROCYTE COUNT: 5.05 x10E6/uL
  HEMATOCRIT: 31%
  HEMOGLOBIN: 12.27 G/DL
  LEUKOCYTE COUNT: 7.47 x10E3/uL
  LYMPHOCYTE: 90.67%
  MEAN CORPUSCULAR HEMOGLOBIN: 24.33 pg
  MEAN CORPUSCULAR HEMOGLOBIN CONCENTRATION: 39.6 G/DL
  MEAN CORPUSCULAR VOLUME: 61.43 fL
  MONOCYTE: 0.67%
  NEUTROPHIL: 8.67%
  NUCLEATED RED BLOOD CELLS: 0 /100WBC
  PLATELET COUNT: 1278.67 x10E3/uL
  ALANINE AMINOTRANSFERASE: 56.67 u/L
  ALBUMIN: 3.8 G/DL
  ALKALINE PHOSPHATASE: 381.67 u/L
  ASPARTATE AMINOTRANSFERASE: 79.67 u/L
  BLOOD UREA NITROGEN: 47.33 mg/dL
  CARBON DIOXIDE: 23 mmol/L
  CHLORIDE: 100.67 MEQ/L
  CHOLESTEROL: 69.33 mg/dL
  CREATINE PHOSPHOKINASE: 401 u/L
  CREATININE: 0.56 mg/dL
  GLUCOSE: 149 mg/dL
  LACTATE DEHYDROGENASE: 105.67 u/L
  LIPASE: 10 u/L
  PHOSPHORUS: 9.53 mg/dL
  POTASSIUM: 7.33 MEQ/L
  SODIUM: 138.9 MEQ/L
  TOTAL BILIRUBIN: 0.2 mg/dL
  TOTAL PROTEIN: 5.27 G/DL
  URIC ACID: 1.17 mg/dL
[3]
  ABSOLUTE BASOPHIL: 0 CELLS/uL
  ABSOLUTE EOSINOPHIL: 82 CELLS/uL
  ABSOLUTE LYMPHOCYTE: 18525.33 CELLS/uL
  ABSOLUTE MONOCYTE: 112.67 CELLS/uL
  ABSOLUTE SEGMENTED NEUTROPHIL: 746.67 CELLS/uL
  BASOPHIL: 0%
  EOSINOPHIL: 0.33%
  ERYTHROCYTE COUNT: 5.79 x10E6/uL
  HEMATOCRIT: 35.4%
  HEMOGLOBIN: 13.73 G/DL
  LEUKOCYTE COUNT: 19.47 x10E3/uL
  LYMPHOCYTE: 95%
  MEAN CORPUSCULAR HEMOGLOBIN: 23.7 pg
  MEAN CORPUSCULAR HEMOGLOBIN CONCENTRATION: 38.8 G/DL
  MEAN CORPUSCULAR VOLUME: 61.13 fL
  MONOCYTE: 0.67%
  NEUTROPHIL: 4%
  NUCLEATED RED BLOOD CELLS: 0 /100WBC
  PLATELET COUNT: 1264 x10E3/uL
  ALANINE AMINOTRANSFERASE: 55.33 u/L
  ALBUMIN: 4.03 G/DL
  ALKALINE PHOSPHATASE: 436 u/L
  ASPARTATE AMINOTRANSFERASE: 82.33 u/L
  BLOOD UREA NITROGEN: 56 mg/dL
  CARBON DIOXIDE: 23.33 mmol/L
  CHLORIDE: 105 MEQ/L
  CHOLESTEROL: 70.67 mg/dL
  CREATINE PHOSPHOKINASE: 365 u/L
  CREATININE: 0.42 mg/dL
  GLUCOSE: 175.33 mg/dL
  LACTATE DEHYDROGENASE: 181.67 u/L
  LIPASE: 10.33 u/L
  PHOSPHORUS: 11.47 mg/dL
  POTASSIUM: 7.6 MEQ/L
  SODIUM: 140.73 MEQ/L
  TOTAL BILIRUBIN: 0.17 mg/dL
  TOTAL PROTEIN: 5.87 G/DL
  URIC ACID: 1.6 mg/dL
